# Results reported in US20230081390A1, “INHIBITORS OF RAF KINASES” (Kinnate Biopharma Inc., priority 2019, published 2023).
# Target: human RAF1 (Homo sapiens, UniProt P04049)
# Test: Protein kinase assay (33P-ATP filter binding), human RAF1, 10-dose IC50
# Format: biochemical
# Conditions: MEK1 (K97R) substrate 3 micromolar, ATP 10 micromolar, read-out: RAF-1 IC50
# In short: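 Human RAF1 phosphorylated human MEK1 (K97R) substrate at 3 µM with 10 µM ATP (³³P), in pH 7.5 HEPES buffer with MgCl2, EGTA, Brij35, BSA, Na3VO4 and DTT. Reactions ran for 2 hr at room temperature with P81 filter capture.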
# human RAF1, sequence (P04049 whole entry): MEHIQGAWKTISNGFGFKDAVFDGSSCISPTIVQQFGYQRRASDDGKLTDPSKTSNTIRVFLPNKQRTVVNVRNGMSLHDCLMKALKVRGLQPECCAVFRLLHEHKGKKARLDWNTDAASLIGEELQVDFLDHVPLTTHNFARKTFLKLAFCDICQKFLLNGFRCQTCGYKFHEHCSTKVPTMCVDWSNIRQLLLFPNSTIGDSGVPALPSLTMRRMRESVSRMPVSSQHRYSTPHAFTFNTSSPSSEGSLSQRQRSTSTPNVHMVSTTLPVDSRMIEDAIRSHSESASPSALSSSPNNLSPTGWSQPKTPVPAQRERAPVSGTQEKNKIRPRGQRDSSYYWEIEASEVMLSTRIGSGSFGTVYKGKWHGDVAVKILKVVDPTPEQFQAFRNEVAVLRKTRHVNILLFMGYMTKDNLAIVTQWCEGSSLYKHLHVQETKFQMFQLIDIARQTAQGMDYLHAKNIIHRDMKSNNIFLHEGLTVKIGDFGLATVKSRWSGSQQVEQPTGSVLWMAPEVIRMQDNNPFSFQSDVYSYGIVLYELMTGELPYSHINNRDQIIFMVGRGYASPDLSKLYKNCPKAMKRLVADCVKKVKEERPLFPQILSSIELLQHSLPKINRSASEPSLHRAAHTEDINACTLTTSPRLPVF
row,IC50 [nM],SMILES
1,< 10,"Cc1ccc(NC(=O)Nc2cnn(C(C)C)c2)cc1-c1cc(OCCO)nc(N2CCOCC2)c1 [Example 139, 1-[3-[2-(2-hydroxyethoxy)-6-(morpholin-4-yl)pyridin-4-yl]-4-methylphenyl]-3-(1-isopropylpyrazol-4-yl)urea]"
2,< 10,"Cc1ccc(NC(=O)N2CC[C@H](OC(C)(F)F)C2)cc1-c1cc(OCCO)nc(N2CCOCC2)c1 [Example 140, (3S)-3-(1,1-difluoroethoxy)-N-[3-[2-(2-hydroxyethoxy)-6-(morpholin-4-yl)pyridin-4-yl]-4-methylphenyl]pyrrolidine-1-carboxamide]"
3,< 10,"Cc1ccc(NC(=O)N(C)c2cnn(C(F)(F)F)c2)cc1-c1cc(OCCO)nc(N2CCOCC2)c1 [Example 141, 1-[3-[2-(2-hydroxyethoxy)-6-(morpholin-4-yl)pyridin-4-yl]-4-methylphenyl]-3-methyl-3-[1-(trifluoromethyl)pyrazol-4-yl]urea]"
4,< 10,"Cc1ccc(NC(=O)N2CC[C@H](OC(F)(F)F)C2)cc1-c1cc(OC[C@H](O)CO)nc(N2CCOCC2)c1 [Example 142, (3S)-N-(3-[2-[(2R)-2,3-dihydroxypropoxy]-6-(morpholin-4-yl)pyridin-4-yl]-4-methylphenyl)-3-(trifluoromethoxy)pyrrolidine-1-carboxamide]"
5,< 10,"Cc1ccc(NC(=O)N2CC[C@H](OC(F)(F)F)C2)cc1-c1cc(OC[C@@H](O)CO)nc(N2CCOCC2)c1 [Example 143, (3S)-N-(3-[2-[(2S)-2,3-dihydroxypropoxy]-6-(morpholin-4-yl)pyridin-4-yl]-4-methylphenyl)-3-(trifluoromethoxy)pyrrolidine-1-carboxamide]"
6,< 10,"Cc1ccc(NC(=O)N2C[C@@H](OC(F)(F)F)CO2)cc1-c1cc(OCCO)nc(N2CCOCC2)c1 [Example 144, (4R)-N-[3-[2-(2-hydroxyethoxy)-6-(morpholin-4-yl)pyridin-4-yl]-4-methylphenyl]-4-(trifluoromethoxy)-1,2-oxazolidine-2-carboxamide]"
7,< 10,"Cc1ccc(NC(=O)N2CCC(=C3CC3)C2)cc1-c1cc(OCCO)nc(N2CCOCC2)c1 [Example 145, 3-cyclopropylidene-N-[3-[2-(2-hydroxyethoxy)-6-(morpholin-4-yl)pyridin-4-yl]-4-methylphenyl]pyrrolidine-1-carboxamide]"
8,< 10,"Cc1ccc(NC(=O)N2CC(OC(F)(F)F)CN2)cc1-c1cc(OCCO)nc(N2CCOCC2)c1 (centres unmarked) [Example 146, N-[3-[2-(2-hydroxyethoxy)-6-(morpholin-4-yl)pyridin-4-yl]-4-methylphenyl]-4-(trifluoromethoxy) pyrazolidine-1-carboxamide]"
9,1000 to 10000,"Cc1ccc(NC(=O)n2ccc(C(=O)C(F)(F)F)c2)cc1-c1cc(OCCO)nc(N2CCOCC2)c1 [Example 147, N-[3-[2-(2-hydroxyethoxy)-6-(morpholin-4-yl)pyridin-4-yl]-4-methylphenyl]-3-(2,2,2-trifluoroacetyl)pyrrole-1-carboxamide]"
10,< 10,"Cc1ccc(NC(=O)N2CC(O)C(CC(F)(F)F)C2)cc1-c1cc(OCCO)nc(N2CCOCC2)c1 (centres unmarked) [Example 148, 3-hydroxy-N-[3-[2-(2-hydroxyethoxy)-6-(morpholin-4-yl)pyridin-4-yl]-4-methylphenyl]-4-(2,2,2-trifluoroethyl)pyrrolidine-1-carboxamide]"
11,< 10,"Cc1ccc(NC(=O)N2CC[C@@H](OC(F)(F)F)C2)cc1-c1cc(OCC(C)(C)O)nc(N2CCOCC2)c1 [Example 149, (3R)-N-[3-[2-(2-hydroxy-2-methylpropoxy)-6-(morpholin-4-yl)pyridin-4-yl]-4-methylphenyl]-3-(trifluoromethoxy)pyrrolidine-1-carboxamide]"
12,< 10,"Cc1ccc(NC(=O)N2CC[C@H](OC(F)(F)F)C2)cc1-c1cc(OC[C@H](C)O)nc(N2CCOCC2)c1 [Example 150, (3S)-N-(3-[2-[(2S)-2-hydroxypropoxy]-6-(morpholin-4-yl)pyridin-4-yl]-4-methylphenyl)-3-(trifluoromethoxy)pyrrolidine-- carboxamide]"
13,< 10,"Cc1ccc(NC(=O)N2CC[C@H](OC(F)(F)F)C2)cc1-c1cc(O[C@@H](C)CO)nc(N2CCOCC2)c1 [Example 151, (3S)-N-[3-(2-[[(2S)-1-hydroxypropan-2-yl]oxy]-6-(morpholin-4-yl)pyridin-4-yl)-4-methylphenyl]-3-(trifluoromethoxy)pyrrolidine-1-carboxamide]"
14,< 10,"Cc1ccc(NC(=O)N2CC[C@H](OC(F)(F)F)C2)cc1-c1cc(OCC(C)(C)O)nc(N2CCOCC2)c1 [Example 154, (3S)-N-[3-[2-(2-hydroxy-2-methylpropoxy)-6-(morpholin-4-yl)pyridin-4-yl]-4-methylphenyl]-3-(trifluoromethoxy)pyrrolidine-1-carboxamide]"
15,< 10,"Cc1ccc(NC(=O)N2CC[C@H](OC(F)(F)F)C2)cc1-c1cc(OC[C@@H](C)O)nc(N2CCOCC2)c1 [Example 155, (3S)-N-(3-[2-[(2R)-2-hydroxypropoxy]-6-(morpholin-4-yl)pyridin-4-yl]-4-methylphenyl)-3-(trifluoromethoxy)pyrrolidine-1-carboxamide]"
16,< 10,"Cc1ccc(NC(=O)N(C)c2cnn(C(F)(F)F)c2)cc1-c1cc(OC[C@@H](C)O)nc(N2CCOCC2)c1 [Example 156, 1-(3-[2-[(2R)-2-hydroxypropoxy]-6-(morpholin-4-yl)pyridin-4-yl]-4-methylphenyl)-3-methyl-3-[1-(trifluoromethyl)pyrazol-4-yl]urea]"
17,< 10,"Cc1ccc(NC(=O)N2CCC3(C2)CC(F)(F)C3)cc1-c1cc(OCCO)nc(N2CCOCC2)c1 [Example 167, 2,2-difluoro-N-(3-(2-(2-hydroxyethoxy)-6-morpholinopyridin-4-yl)-4-methylphenyl)-6-azaspiro[3.4]octane-6-carboxamide]"
18,< 10,"Cc1cc(F)c(NC(=O)N2CCS[C@H](C(F)(F)F)C2)cc1-c1cc(OCCO)nc(N2CCOCC2)c1 [Example 168, (S)-N-(2-fluoro-5-(2-(2-hydroxyethoxy)-6-morpholinopyridin-4-yl)-4-methylphenyl)-2-(trifluoromethyl)thiomorpholine-4-carboxamide]"
19,< 10,"Cc1cc(F)c(NC(=O)N2CCS[C@@H](C(F)(F)F)C2)cc1-c1cc(OCCO)nc(N2CCOCC2)c1 [Example 169, (R)-N-(2-fluoro-5-(2-(2-hydroxyethoxy)-6-morpholinopyridin-4-yl)-4-methylphenyl)-2-(trifluoromethyl)thiomorpholine-4-carboxamide]"
20,< 10,"Cc1ccc(NC(=O)N2CC[C@H](OC(F)(F)F)C2)cc1-c1cc(OC(C)(C)CO)nc(N2CCOCC2)c1 [Example 170, (3S)-N-(3-[2-[(1-hydroxy-2-methylpropan-2-yl)oxy]-6-(morpholin-4-yl)pyridin-4-yl]-4-methylphenyl)-3-(trifluoromethoxy)pyrrolidine-1-carboxamide]"
21,< 10,"Cc1ccc(NC(=O)N2CC=C(C(F)(F)F)C2)cc1-c1cc(O[C@H](C)[C@@H](C)O)nc(N2CCOCC2)c1 [Example 171, N-(3-(2-(((2R,3R)-3-hydroxybutan-2-yl)oxy)-6-morpholinopyridin-4-yl)-4-methylphenyl)-3-(trifluoromethyl)-2,5-dihydro-1H-pyrrole-1-carboxamide]"
22,< 10,"Cc1ccc(NC(=O)N2CC[C@H](OC(F)(F)F)C2)cc1-c1cc(O[C@H](C)[C@@H](C)O)nc(N2CCOCC2)c1 [Example 172, (S)-N-(3-(2-(((2R,3R)-3-hydroxybutan-2-yl)oxy)-6-morpholinopyridin-4-yl)-4-methylphenyl)-3-(trifluoromethoxy)pyrrolidine-1-carboxamide]"
23,< 10,"Cc1ccc(NC(=O)n2ccc(C(C)(C)C)c2)cc1-c1cc(OCCO)nc(N2CCOCC2)c1 [Example 173, 3-(tert-butyl)-N-(3-(2-(2-hydroxyethoxy)-6-morpholinopyridin-4-yl)-4-methylphenyl)-1H-pyrrole-1-carboxamide]"
24,< 10,"Cc1ccc(NC(=O)N2CC[C@H](OC(F)F)C2)cc1-c1cc(O[C@H](C)[C@@H](C)O)nc(N2CCOCC2)c1 [Example 174, (S)-3-(difluoromethoxy)-N-(3-(2-(((2R,3R)-3-hydroxybutan-2-yl)oxy)-6-morpholinopyridin-4-yl)-4-methylphenyl)pyrrolidine-1-carboxamide]"
25,< 10,"Cc1ccc(NC(=O)N2C[C@@H]3[C@H](C2)[C@H]3C(F)(F)F)cc1-c1cc(OCCO)nc(N2CCOCC2)c1 [Example 176, (1R,5S,6r)-N-(3-(2-(2-hydroxyethoxy)-6-morpholinopyridin-4-yl)-4-methylphenyl)-6-(trifluoromethyl)-3-azabicyclo[3.1.0]hexane-3-carboxamide]"
26,< 10,"Cc1ccc(NC(=O)N2CCC(CC(F)(F)F)C2)cc1-c1cc(OC[C@@H](O)CO)nc(N2CCOCC2)c1 (stereo partly drawn) [Example 179, N-(3-(2-((S)-2,3-dihydroxypropoxy)-6-morpholinopyridin-4-yl)-4-methylphenyl)-3-(2,2,2-trifluoroethyl)pyrrolidine-1-carboxamide]"
27,< 10,"Cc1ccc(NC(=O)N2CCC(CC(F)(F)F)C2)cc1-c1cc(OC[C@H](O)CO)nc(N2CCOCC2)c1 (stereo partly drawn) [Example 180, N-(3-(2-((R)-2,3-dihydroxypropoxy)-6-morpholinopyridin-4-yl)-4-methylphenyl)-3-(2,2,2-trifluoroethyl)pyrrolidine-1-carboxamide]"
28,< 10,"Cc1cc(F)c(NC(=O)N2CC[C@@H](CC(F)(F)F)C2)cc1-c1cc(OC[C@@H](C)O)nc(N2CCOCC2)c1 [Example 181, (S)-N-(2-fluoro-5-(2-((R)-2-hydroxypropoxy)-6-morpholinopyridin-4-yl)-4-methylphenyl)-3-(2,2,2-trifluoroethyl)pyrrolidine-1-carboxamide]"
29,< 10,"Cc1ccc(NC(=O)N2CCC(CC(F)(F)F)C2)cc1-c1cc(OC2CCOCC2)nc(N2CCOCC2)c1 (centres unmarked) [Example 187, N-(4-methyl-3-(2-morpholino-6-((tetrahydro-2H-pyran-4-yl)oxy)pyridin-4-yl)phenyl)-3-(2,2,2-trifluoroethyl)pyrrolidine-1-carboxamide]"
